Experimental data published in US20110178171A1, “COMPOUNDS FOR CANCER THERAPY” (China Medical University, priority 2010, published 2011).

Tests used:
[1] = system: oral cancer cell line OECM-1; test: MTT growth inhibition assay, OECM-1; assay type: cell-based; details: OECM-1, oral squamous cell carcinoma
Procedure: (§1) The results were determined by three independent experiments.
(§2) Besides, the above assay was also conducted on gastric cancer cell line NCI-N87, liver cancer cell line HepG2 and J5, lung cancer cell line A549, and oral cancer cell line OECM-1.

PC3 cells = test: MTT growth inhibition assay, PC3; assay type: cell-based, human; details: PC3, androgen-independent prostate adenocarcinoma
Procedure: (§3) The LNCaP (androgen-sensitive), PC3 (androgen in-dependent), human prostate cancer and normal human fibroblast 3T3 were obtained from American Type Culture Collection (Manassas, Va.) were maintained with RPMI 1640 medium containing 10% FBS and […] each of penicillin and streptomycin at […] in a humidified atmosphere with 5% CO2.
(§4) The viability of the cells after treated with various chemicals was evaluated using MTT assay preformed in triplicate (Mosmann T. 1983. Rapid colorimetric assay for cellular growth and survival: application to proliferation and cytotoxicity assays”. Journal of immunological methods. 65 (1-2): 55-63). Briefly, the cancer cells (5×10^3) were incubated in 96-well plates containing […] of the culture medium. Cells were permitted to adhere for 12-18 h then washed with phosphate buffered saline (PBS). Solutions were always prepared fresh by dissolving 0.2% DMSO or K8 in culture medium and added to various kind of tumor. After 48 h of exposure, K8 containing medium was removed, washed with PBS and replaced by fresh medium. The cells in each well were then incubated in culture medium with […] MTT for 4 h. After the medium were removed, […] of DMSO and […] of glycine buffer (0.1 M glycine, 0.1 M NaCl, pH 10.5) were added to each well. Absorbance at 570 nm of the maximum was detected by a PowerWave X Microplate ELISA Reader (Bio-TeK Instruments, Winoski, Vt.). The absorbance for DMSO treated cells was considered as 100%. The results were determined by three independent experiments.
Cytotoxicities of Z-K8 (Isochaihulactone) on LNCaP (AR-dependent), and PC3 (AR-independent) tumor cell line were examined in the manner described above. […]

[2] = system: lung cancer cell line A549; test: MTT growth inhibition assay, A549; assay type: cell-based, human; details: A549, lung adenocarcinoma
Procedure: as §1, §2

LNCaP cells [3] = test: MTT growth inhibition assay, LNCaP; details: for IC50: LNCaP, androgen-dependent prostate adenocarcinoma
Procedure: as §3, §4
Cytotoxicity of K8 (Isochaihulactone) on LNCaP cells was examined in the manner described above. The cells were treated with KS (Isochaihulactone), its Z-form, or its E-form of different concentrations ranging from 2.5 to 20 μM for 24 h.
Cytotoxicities of Z-K8 (Isochaihulactone) on LNCaP (AR-dependent), and PC3 (AR-independent) tumor cell line were examined in the manner described above. The cells were treated with the Z- or E-form K8 (Isochaihulactone) of different concentrations ranging from 0.3125 to 5 μM for 24 h.

LNCaP xenografts = test: Antitumor activity in vivo, LNCaP xenograft; design: species or system mice; details: for Tumor growth volume (mm^3): 30 mg/kg s.c. days 0-4
Procedure: Xenograft mice as a model system to study cytotoxicity effect of isochaihulactone in vivo: the implantation of cancer cells (LNCaP) were carried out similarly to previous reports. Female congenital athymic BALB/c nude (nu/nu) mice were purchased from National Sciences Council (Taipei, Taiwan) and all procedures were performed in compliance with the standard operating procedures of the Laboratory Animal Center of China Medical University (Taichung, Taiwan). All experiments were carried out using 6-8-week old mice weighing 18-22 g. The animals were s.c. implanted with 1×10^7 cell sinto the back of mice. When the tumor reached 80-120 mm3 in volume, animals were divided randomly into control and test groups consisting of six mice per group (day 0). Daily s.c. administration of z-K8, dissolved in a vehicle of 20% Tween 80 in normal saline (v/v) was performed from days 0 to 4 far from the inoculated tumor sites (>1.5 cm). The control group was treated with vehicle only. The mice were weighed three times a week up to days 21-28 to monitor the effects and the same time the tumor volume was determined by measurement of the length (L) and width (W) of the tumor. The tumor volume at day n (TVn) was calculated as TV (mm3)=(L×W^2)/2. The relative tumor volume at day n (RTVn) versus day 0 was expressed according to the following formula: RTVn=TVn/TV0. Tumor regression (T/C(%)) in treated versus control mice was calculated using: T/C(%)=(mean RTV of treated group)/(mean RTV of control group)×100. Xenograft tumors as well as other vital organs of treated and control. The results are shown in Tables 6 and 7 and FIGS. 6 and 7.
Assays were carried out to examine the inhibition of human xenografts growth in vivo by isochaihulactone. Briefly, LNCaP tumor-bearing mice were administered s.c. with vehicle control, 30 mg/kg E-K8, and Z-K8 respectively on days 0-4 for 5 days. The volumes of the tumors were measured. […] Scale bars, […]. Data represent means W S.D. of tumor volume at each time
Assays were carried out to examine the inhibition of human xenografts growth in vivo by Z-K8. Again, LNCaP tumor-bearing mice were administered s.c. with vehicle control, Z-K8 15 mg/kg on days 0-4 for 5 days. The volumes of the tumors were measured. […] Scale bars, […]. Data represent means W S.D. of tumor volume at each time point.

[4] = system: liver cancer cell line HepG2; test: MTT growth inhibition assay, HepG2; assay type: cell-based; details: HepG2, hepatocarcinoma
Procedure: as §1, §2

[5] = system: liver cancer cell line J5; test: MTT growth inhibition assay, J5; assay type: cell-based; details: J5, hepatocarcinoma
Procedure: as §1, §2

LNCaP cells [6] = test: Cell cycle analysis by flow cytometry; assay type: cell-based, human; details: 20 nM
Procedure: The cell cycle was determined by flow cytometry with DNA staining to reveal the total amount of DNA. Approximately 5×10^5 of cells were incubated in various concentration of isochaihulactone for the indicated time. Cells were harvested by treating the cells with trypsin/EDTA. The cells were collected, washed with PBS, fixed with cold 70% ethanol overnight, and then stained with a solution containing […] PI, 10 mg/ml RNase A, and 0.1% Triton X-100 for 1 h in the dark. The cells will then pass through FACScan flow cytometer (equipped with a 488-nmargon laser) to measure the DNA content. The data was obtained and analyzed with CellQuest 3.0.1 (Becton Dickinson, Franklin Lakes, N.J.) and ModFitLT V2.0 software. The results are shown Table 4 and FIG. 4.
Assays were carried out to examine the effect of Z-K8 in inducing G2/M phase arrest and apoptosis in LNCaP cells. Briefly, the cells were treated with different concentrations of Z-K8 (ranging from 0.25 to 2 μM) for 24 h. The cell cycle analysis was done according to the method described above. As shown in FIG. 4 and Table 4, Z-K8 induced cell cycle G2/M arrest in LNCaP cells.

Compound `COc1cc(/C=C2/C(=O)OCC2Cc2ccc3c(c2)OCO3)cc(OC)c1OC` (racemic) [E-K8] has an IC50 [1] greater than 1 µM, an IC50 (PC3 cells) greater than 20 µM and an IC50 [2] greater than 100 µM. The “Viability (%)” value (LNCaP cells [3]; 2.5 µM) was 86.2%, the “Viability (%)” value (LNCaP cells [3]; 5 µM) was 72.9% and the “Viability (%)” value (LNCaP cells [3]; 10 µM) was 69.8%. The “Viability (%)” value (LNCaP cells [3]; 20 µM) was 65.3%, the IC50 (LNCaP cells [3]) was greater than 20 µM and the “Tumor growth volume (mm^3)” value (LNCaP xenografts; day 1 after administration) was 0 mm^3. For the same compound, the “Tumor growth volume (mm^3)” value (LNCaP xenografts; day 4 after administration) was 118.0 mm^3, the “Tumor growth volume (mm^3)” value (LNCaP xenografts; day 7 after administration) was 137.1 mm^3 and the “Tumor growth volume (mm^3)” value (LNCaP xenografts; day 10 after administration) was 205.7 mm^3. The “Tumor growth volume (mm^3)” value (LNCaP xenografts; day 13 after administration) was 313.7 mm^3, the “Tumor growth volume (mm^3)” value (LNCaP xenografts; day 16 after administration) was 427.4 mm^3 and the “Tumor growth volume (mm^3)” value (LNCaP xenografts; day 19 after administration) was 504.7 mm^3. For the same compound, the “Tumor growth volume (mm^3)” value (LNCaP xenografts; day 22 after administration) was 633.5 mm^3, the “Tumor growth volume (mm^3)” value (LNCaP xenografts; day 25 after administration) was 658.6 mm^3 and the “Tumor growth volume (mm^3)” value (LNCaP xenografts; day 28 after administration) was 834.9 mm^3. For the same compound, the “Tumor growth volume (mm^3)” value (LNCaP xenografts; day 31 after administration) was 894.9 mm^3 and the “tumor growth inhibition, in words” value (LNCaP xenografts; LNCaP tumor-bearing mice, 30 mg/kg s.c. days 0-4 (FIG. 6)) was “tumor growth inhibition effect”.
`COc1cc(/C=C2\C(=O)OC[C@@H]2Cc2ccc3c(c2)OCO3)cc(OC)c1OC` [K8, isochaihulactone] gave an IC50 [4] greater than 20 µM, an IC50 (PC3 cells) greater than 100 µM and an IC50 [2] of 18.5 µM. For the same compound, the “Viability (%)” value (LNCaP cells [3]; 2.5 µM) was 67.4%, the “Viability (%)” value (LNCaP cells [3]; 5 µM) was 43.6% and the “Viability (%)” value (LNCaP cells [3]; 10 µM) was 40.9%. The “Viability (%)” value (LNCaP cells [3]; 20 µM) was 21.0%, the IC50 (LNCaP cells [3]) was 4.3 µM and the IC50 [5] was 21.5 µM.
In the case of `CC(=O)O[C@H]1C(=O)[C@@]2(C)[C@H]([C@H](OC(=O)c3ccccc3)[C@]3(O)C[C@H](OC(=O)[C@H](O)[C@@H](NC(=O)c4ccccc4)c4ccccc4)C(C)=C1C3(C)C)[C@]1(OC(C)=O)CO[C@@H]1C[C@@H]2O` [toxal, reference compound], the “Cells in phase (%) G0/G1” value (LNCaP cells [6]) is reported as 16.40%, the “Cells in phase (%) G2/M” value (LNCaP cells [6]) is reported as 40.23% and the “Cells in phase (%) S” value (LNCaP cells [6]) is reported as 3.95%. For the same compound, the “Cells in phase (%) Sub-G1” value (LNCaP cells [6]) was 11.43%.
